Values joined by “and” are separate entries in the source; they are usually repeats but may differ in a detail not shown here. Equal entries are not always repeated. Where two headings read alike, the source gives them in different places. Where a SMILES comes first, the peptide text is derived from it. The star is where a group is joined. Palmitoyl = CCCCCCCCCCCCCCCC(=O)*
How the values were obtained:
[1] = system: HIV-1 NL4-3 gp41 NDQEEDYN/L33S/I37T pseudovirus; format: cell-based; settings: Table 3; for IC50: NDQEEDYN/L33S/I37T, TZM-bl cells, 48 h, luciferase, means, triplicate, repeated three times
Procedure, shortened: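 Env-pseudotyped HIV-1 (pSG3ΔEnv backbone, luciferase reporter) made in HEK293T and normalised by p24. 3-fold serial inhibitor dilutions mixed with virus, then TZM-bl cells added, 48 h at 37 °C. Single-cycle infection; IC50 from luciferase activity in lysed cells.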

[2] = system: HIV-1 NL4-3 gp41 I37T pseudovirus; format: cell-based; settings: for IC50: I37T, TZM-bl cells, 48 h, luciferase, mean ± SD, triplicate, repeated three times; for Fold change in IC50: I37T relative to WT NL4-3
Experimental: (§1) Viral RNA was extracted from the supernatant, and, after reverse transcription, the cDNA was amplified using PCR. These amplified DNA were connected to the T-Easy vector and transformed to Trans 2-Blue Chemically Competent Cells. These sequences were determined via sequencing. The expression plasmids, which contained different HIV-1NL4-3 Env mutants, were constructed using DNA assembly (NEBuilder® HiFi DNA Assembly Master Mix). In brief, two primers were used to amplify Env, and the other two primers were used to amplify the vector fragment. The products of PCR were purified with a 20–25 bp overlap in the terminal of Env and the vector fragment Env and the vector fragment were added to the DNA assembly master mix at […] for 15 min and then transformed to Trans 2-Blue Chemically Competent Cells. Additionally, a single-point mutation was generated using double-stranded DNA templates and a selection of mutants with a restriction enzyme (DpnI) as described previously.
(§2) The infectivity of HIV Env mutants and the inhibitory activities of membrane fusion inhibitors on mutants in TZM-bl cells were measured using a single-cycle infection assay as described previously. Briefly, the HIV pseudovirus was packed using an Env-coding plasmid, and pSG3ΔEnv was co-transfected into HEK293T cells. pSG3ΔEnv encodes an Env-defective, luciferase-expressing HIV-1 genome. After the pseudoviruses were harvested and filtrated, the amount of pseudoviruses was fixed via P24 antigen, and their infectivity was determined in TZM-bl cells. In order to measure the inhibitory activities of the inhibitors, inhibitors diluted serially 3-fold were mixed with an equal volume of pseudoviruses, and then 100 µL 1 × 10^5/mL TZM-bl cells were added to the mixture and incubated at 37 °C with 5% CO2 for 48 h. After that, TZM-bl cells were lysed using reporter lysis buffer, and IC50 values were calculated according to luciferase activity measured by luciferase assay reagents and a luminescence counter (Promega, Madison, WI, USA).

[3] = system: HIV-1 NL4-3 gp41 L33S pseudovirus; format: cell-based; settings: for IC50: L33S, TZM-bl cells, 48 h, luciferase, mean ± SD, triplicate, repeated three times; for Fold change in IC50: L33S relative to WT NL4-3
Experimental: as §1, §2

HIV-1 NL4-3 = assay: In vitro selection of resistant virus, dose-escalating passages in C8166 cells; format: cell-based; settings: 1.5- to 2-fold increase per passage, start 0.5 µM T20, 0.04 µM LP-40
Experimental: To determine the resistance profile of LP-40, LP-40-resistant variants were selected using a dose-escalating method. The selection for drug-resistant HIV-1NL4-3 commenced with a concentration of 0.04 µM LP-40 (Figure 2B). Finally, after 32 passages, the induced concentration of LP-40 reached 200 µM. […] As shown in passage 9 (P-9), the concentration of LP-40 was 0.3 µM, and it can be observed that isoleucine was replaced by threonine at position 37 in the gp41 NHR coding region (I37T). G86D and C87Y were observed; at position 119 (E 119 G) in the gp41 CHR coding region, glutamate was replaced by glycine; at position 126 (N 126 K), asparagine was replaced by lysine. In P-24, the concentration of LP-40 was 8 µM; I37T in the NHR coding region was still present, and A15V, A21T, and L57H were also present, and N126K at position 126 in the CHR coding region was still present. In P-26, the concentration of LP-40 was 20 µM; at L33S, position 33 in the NHR coding region, leucine was replaced by serine and I37T remained. Additionally, a combination of mutations—E109N, N113D, E119Q, D121E, N125E, S129D, H132Y, and S133N (abbreviated as […])—appeared in the coding region of CHR. At a concentration of 200 µM, in addition to L33S and I37T, D36G, V38A, V38T, N42T, and I69V appeared in the NHR coding region, and a combination of the above eight mutations still existed in the CHR coding region. […]

NL4-3D36G virus = settings: single infection inhibition experiment; cited from earlier work
Experimental: However, it requires frequent and high doses (90 mg, twice a day), and resistance is easily acquired. The TRM of the T20 carboxy-terminal, also known as the MPER (membrane proximal external region), is rich in […] sequences ([…]). Therefore, it is highly hydrophobic (Figure 1).

[4] = system: HIV-1 NL4-3 pseudovirus (WT); format: cell-based; settings: for IC50: WT NL4-3, TZM-bl cells, 48 h, luciferase, triplicate, repeated three times
Experimental: as §2

[5] = system: LP40-V2 pseudovirus (HIV-1 NL4-3 Env mutant); format: cell-based
Experimental: as §2

[6] = system: HIV-1 NL4-3 gp41 I69V pseudovirus; format: cell-based; settings: for Fold change in IC50: I69V relative to WT NL4-3
Experimental: as §1, §2

| Compound | IC50 [1] | IC50 ([2]; Table 2) | IC50 ([3]; Table 2) | Induced inhibitor concentration reached after 32 passages (HIV-1 NL4-3) | Improvement of antiviral IC50 compared to T20 (NL4-3D36G virus) | Fold change in IC50 ([1]; NDQEEDYN/L33S/I37T relative to WT NL4-3) | IC50 ([4]; Table 1, mean ± SD) | IC50 ([4]; Table 2, mean ± SD) | IC50 ([4]; Table 3, means) | Fold change in IC50 ([4]; WT NL4-3 reference, Table 1) | IC50 ([5]; LP40-V2 (Env selected at LP-40 0.3 µM), TZM-bl cells, 48 h, luciferase, mean ± SD, triplicate, repeated three times) | Fold change in IC50 ([5]; LP40-V2 relative to WT NL4-3, Table 1) | Fold change in IC50 ([2]; Table 2) | Fold change in IC50 ([2]; Table 3) | Fold change in IC50 ([6]; Table 2) | Fold change in IC50 ([6]; Table 3) | IC50 ([6]; I69V, Table 2, TZM-bl cells, 48 h, luciferase, mean ± SD, triplicate, repeated three times) | Fold change in IC50 ([3]; Table 2) | Fold change in IC50 ([3]; Table 3) |
| --- | --- | --- | --- | --- | --- | --- | --- | --- | --- | --- | --- | --- | --- | --- | --- | --- | --- | --- | --- |
| Enfuvirtide | 3790 nM | 711 ± 157 nM | 3450 ± 564 nM |  |  |  |  |  |  |  |  |  |  |  |  |  |  |  |  |
| CCCCCCCCCCCCCCCC(=O)NCCCC[C@H](NC(=O)[C@H](CC(=O)O)NC(=O)[C@H](CC(C)C)NC(=O)[C@H](CCC(=O)O)NC(=O)[C@H](CC(C)C)NC(=O)[C@H](CC(C)C)NC(=O)[C@H](CCC(=O)O)NC(=O)[C@H](CCC(N)=O)NC(=O)[C@H](CCC(=O)O)NC(=O)[C@H](CC(N)=O)NC(=O)[C@H](CCCCN)NC(=O)[C@H](CCC(=O)O)NC(=O)[C@H](CCC(N)=O)NC(=O)[C@H](CCC(N)=O)NC(=O)[C@H](CC(N)=O)NC(=O)[C@H](CCC(N)=O)NC(=O)[C@H](CO)NC(=O)[C@H](CCC(=O)O)NC(=O)[C@H](CCC(=O)O)NC(=O)[C@@H](NC(=O)[C@H](CC(C)C)NC(=O)[C@H](CO)NC(=O)[C@H](Cc1c[nH]cn1)NC(=O)[C@@H](NC(=O)[C@H](CC(C)C)NC(=O)[C@H](CO)NC(=O)[C@@H](NC(=O)[C@H](Cc1ccc(O)cc1)NC(C)=O)[C@@H](C)O)[C@@H](C)CC)[C@@H](C)CC)C(N)=O [LP-40] (Ac-YTSLIHSLIEESQNQQEKNEQELLELDK(Palmitoyl)-NH2) | 3280 nM | 515 ± 74.3 nM | 2120 ± 534 nM | 200 µM | approximately seven-fold | 120.00 fold | 29.7 ± 4.52 nM | 31.5 ± 10.4 nM | 27.3 nM | 1.00 fold | 374 ± 29.8 nM | 12.59 fold | 16.33 fold | 18.85 fold | 0.93 fold | 1.08 fold | 29.4 ± 4.59 nM | 67 fold and 67.08 fold | 77.43 fold |

— paper PMC9223764, “In Vitro Selection and Characterization of HIV-1 Variants with Increased Resistance to LP-40, Enfuvirtide-Based Lipopeptide Inhibitor” (International Journal of Molecular Sciences, 2022)
